{"source": "patent US5756491A", "about": "“Antiviral cobalt-organic compounds” (priority 1991, dated 1998)", "key": {"HFF cells [1]": {"system": "HFF cells", "experiment": "MTT assay for cell cytotoxicity", "format": "cell-based, human", "conditions": "stationary cells", "experimental": "Twenty-four hours prior to assay, HFF cells are plated into 96 well plates at a concentration of […] cells per well. After 24 h, the media is aspirated and […] of drug is added to the first row of wells and then diluted serially 1:5 using the automated Cetus Liquid Handling System in a manner similar to that used in the CPE assay. The plates are then incubated in a CO2 incubator at 37° C. for seven days. At this time, each well receives 50 microliters of […] solution of MTT in Dulbecco's Phosphate Buffered Saline. The plates are then incubated for an additional four hours. At this time, the media is removed and replaced with 100 μl of 0.04N hydrochloric acid in isopropanol. After shaking briefly, the plates are then read on a plate reader at 550 nm."}, "HFF cells [2]": {"system": "HFF cells", "experiment": "Cell proliferation assay", "format": "cell-based, human", "conditions": "rapidly growing cells", "experimental": "Twenty-four hours prior to assay, HFF cells are seeded in 6-well plates at a concentration of 2.5×10^4 cells per well in MEM containing 10% FBS. On the day of the assay, drugs are diluted serially in MEM containing 10% FBS at increments of 1:5 covering a range from 100 μg/ml to 0.03 μg/ml. […] The media from the wells is then aspirated and 2 ml of each drug concentration is then added to each well. The cells are then incubated in a Co2 incubator at 37° C. for 72 h. At the end of this time, the media-drug solution is removed and the cells washed. […] The cell-media mixture is then pipetted up and down vigorously to break up the cell suspension and 0.2 ml of the mixture is added to 9.8 ml of Isoton III and counted using a Coulter Counter. Each sample is counted three times with three replicate wells per sample."}, "[3]": {"system": "human foreskin fibroblast (HFF) cell monolayers", "experiment": "Toxicity effects controls: sham-inoculated compound-treated HFF monolayers; for Toxicity effects: key: +: toxic; -: no toxicity; ±: mild toxicity; T: toxicity effects interfered with CPE rating", "format": "cell-based", "excerpt": "With sufficient stirring, all the compounds completely dissolved.\nIn the tables, the symbols have the meaning indicated: […]"}, "RE strain HSV-1": {"system": "RE strain HSV-1", "experiment": "Topical efficacy in RE strain HSV-1-induced stromal keratitis in the rabbit", "format": "in vivo, NZW rabbit", "experimental": "The following examples describe topical ocular evaluation of the inventive compounds during RE strain HSV-1-induced stromal keratitis in the rabbit. These evaluations included analysis of the topical efficacy of both the inventive compounds alone, or, in certain instances, in combination with trifluorothymidine (TFT). The evaluation was carried out by the combined analysis of both clinical and virological (HSV-1 recovery) parameters. The specified number of NZW rabbits (1.5-2.0 kg) were used. Animals were received at least two days prior to inoculation to allow them to accommodate to the conditions in the vivarium facility. This conditioning of the animals prior to inoculation minimizes animal variability. After the accommodation, the animals received a slit-lamp examination to exclude any animals with pre-existing anterior segment ocular defects. Animals were bi-laterally inoculated by intrastromal injection of 10^5 PFU RE strain HSV-1. The animals were then replaced individually into cages. On day number three post-inoculation (PI), the animals were evaluated by slit-lamp microscopy. Corneal stromal, iris and conjunctival disease were graded on an increasing scale of severity from 0+ to 4+. After evaluation, the animals were divided into a specified number of groups each containing an equal number of animals based on a matched corneal stromal involvement. Topical therapy was initiated immediately after animal groupings. All animals received daily slit-lamp evaluations from day 3 through 7 PI. The ocular HSV-1 induced disease severity was recorded daily. […] Differences in disease resolution and development of stromal alterations are statistically analyzed. Virus recovery during and after topical therapy was compared. The topical efficacy of Compounds 23 and 96 on stromal HSV-1 infection in the rabbit model of stromal keratitis was evaluated. All animals received daily slit lamp evaluations from day 3 through day 7 and on days 9 and 10 PI. The ocular HSV-1-induced disease severity was recorded daily. The topical efficacy of Compounds 23, 96 and 82 on stromal HSV-1 infection in the rabbit model of stromal keratitis was evaluated. All animals received daily slit lamp evaluations for day 3 through day 7 PI. The ocular HSV-1-induced disease severity was recorded daily. The topical efficacy of Compounds 23 and 96 in combination with TFT on stromal HSV-1 infection in the rabbit model of stromal keratitis was evaluated. Groups 1, 2 and 3 each have 5 animals for a total of 10 eyes per combination therapy. This allowed minimization of individual animal variability and performance of a statistical analysis on the results of the combination therapies. Groups 3, 4 and 5 have 2 animals each. These single-agent therapies were used to verify previously reported data on the efficacy of these compounds. The compounds are used at a lower frequency of delivery to match the dosing regimen of the combination-agent group. Consequently, the study also provides comparative information on Compounds 23 and 96 as a lower frequency of topical administration (4 times per day vs. 9 times per day in previous studies)."}, "[4]": {"experimental": "A stock solution of each compound to be tested at a concentration of 5 mg/ml was prepared. The stock solution was serially diluted in Hank's Balanced Salt Solution (HBSS) to obtain final drug concentrations of 5, 2, 1, 0.5, 0.1, 0.01, 0.001 and 0.0001 mg/ml. […] In such cases, the highest dissolved concentration that could be obtained was utilized.\nConcentrations of compounds 93, 96, and 23 were prepared as follows: A stock solution of each compound at a concentration of 5 mg/ml was made. This stock solution was serially diluted in Hanks Balanced Salt Solution to obtain final drug concentrations of: 5, 2, 1, 0.5, 0.1, 0.01, 0.001, and 0.0001 mg/ml. Five hundred μl of each drug concentration were added to triplicate infected monolayers."}}}
{"smiles": "CC([O-])=CC(C)=NCCN=C(C)C=C(C)[O-].Cc1ncc[nH]1.Cc1ncc[nH]1.[Br-].[Co+3]", "note": "[Compound 96]", "values": [{"measurement": "toxicity IC50, MTT toxicity", "setting": "HFF cells [1]", "value": "> 74", "unit": "MCG/ML"}, {"measurement": "toxicity IC50, cell proliferation", "setting": "HFF cells [2]", "value": 21.0, "unit": "MCG/ML"}, {"measurement": "toxicity at 1 mg/ml (comment)", "setting": "[3]", "value": "a lack of toxicity"}, {"measurement": "toxicity effects", "setting": "[3]; Experiment 3 (Table 7), 24 h PI, 0.001 mg/ml", "value": "-"}, {"measurement": "toxicity effects", "setting": "[3]; Experiment 3 (Table 7), 24 h PI, 0.01 mg/ml", "value": "-"}, {"measurement": "toxicity effects", "setting": "[3]; Experiment 3 (Table 7), 24 h PI, 0.1 mg/ml", "value": "-"}, {"measurement": "toxicity effects", "setting": "[3]; Experiment 3 (Table 7), 24 h PI, 1 mg/ml", "value": "-"}, {"measurement": "toxicity effects", "setting": "[3]; Experiment 3 (Table 7), 48 h PI, 0.001 mg/ml", "value": "-"}, {"measurement": "toxicity effects", "setting": "[3]; Experiment 3 (Table 7), 48 h PI, 0.01 mg/ml", "value": "-"}, {"measurement": "toxicity effects", "setting": "[3]; Experiment 3 (Table 7), 48 h PI, 0.1 mg/ml", "value": "-"}, {"measurement": "toxicity effects", "setting": "[3]; Experiment 3 (Table 7), 48 h PI, 1 mg/ml", "value": "-"}, {"measurement": "toxicity effects", "setting": "[3]; Experiment 4 (Table 10), 24 h, 0.001 mg/ml", "value": "-"}, {"measurement": "toxicity effects", "setting": "[3]; Experiment 4 (Table 10), 24 h, 0.01 mg/ml", "value": "-"}, {"measurement": "toxicity effects", "setting": "[3]; Experiment 4 (Table 10), 24 h, 0.5 mg/ml", "value": "-"}, {"measurement": "toxicity effects", "setting": "[3]; Experiment 4 (Table 10), 24 h, 1 mg/ml", "value": "-"}, {"measurement": "toxicity effects", "setting": "[3]; Experiment 4 (Table 10), 48 h, 0.001 mg/ml", "value": "-"}, {"measurement": "toxicity effects", "setting": "[3]; Experiment 4 (Table 10), 48 h, 0.01 mg/ml", "value": "-"}, {"measurement": "toxicity effects", "setting": "[3]; Experiment 4 (Table 10), 48 h, 0.5 mg/ml", "value": "-"}, {"measurement": "toxicity effects", "setting": "[3]; Experiment 5 (Table 13), 24 h, 0.00 mg/ml (so in the source)", "value": "-"}, {"measurement": "toxicity effects", "setting": "[3]; Experiment 5 (Table 13), 24 h, 0.01 mg/ml", "value": "-"}, {"measurement": "toxicity effects", "setting": "[3]; Experiment 5 (Table 13), 24 h, 0.5 mg/ml", "value": "-"}, {"measurement": "toxicity effects", "setting": "[3]; Experiment 5 (Table 13), 48 h, 0.00 mg/ml (so in the source)", "value": "-"}, {"measurement": "toxicity effects", "setting": "[3]; Experiment 5 (Table 13), 48 h, 0.01 mg/ml", "value": "-"}, {"measurement": "toxicity effects", "setting": "[3]; Experiment 5 (Table 13), 48 h, 0.5 mg/ml", "value": "-"}, {"measurement": "toxicity effects", "setting": "[3]; Experiment 5 (Table 13), 48 h, 5 mg/ml", "value": "+"}, {"measurement": "toxicity effects", "setting": "[3]; Experiment 6 (Table 15), 48 h, 0.001 mg/ml", "value": "-"}, {"measurement": "toxicity effects", "setting": "[3]; Experiment 6 (Table 15), 48 h, 0.01 mg/ml", "value": "-"}, {"measurement": "toxicity effects", "setting": "[3]; Experiment 6 (Table 15), 48 h, 1 mg/ml", "value": "-"}, {"measurement": "toxicity to HFF monolayers (comment)", "setting": "[3]; Experiment 6 comment, more pronounced at 0.5 and 0.1 mg/ml, cell rounding, detaching, granularity", "value": "toxicity observed"}, {"measurement": "comparison with all other therapies in reducing/preventing corneal stromal keratitis", "setting": "RE strain HSV-1; Example 3", "value": "superior to all other therapies in reducing and/or preventing the development of corneal stromal keratitis"}, {"measurement": "scarring vs TFT animals", "setting": "RE strain HSV-1; Example 3", "value": "significantly lower than the scarring in the TFT animals"}, {"measurement": "efficacy ranking during stromal HSV-1 infection", "setting": "RE strain HSV-1; Example 3, all eyes, FIG. 1, 1 mg/ml (TFT 0.1%), 9x/day, 5 days", "value": "Compound 96>>Compound 23>TFT>Placebo"}, {"measurement": "comparison with compound 23", "setting": "RE strain HSV-1; Example 3, all of the therapies used", "value": "superior properties in all of the therapies used in the studies as compared to compound 23"}, {"measurement": "efficacy vs other topical therapies", "setting": "RE strain HSV-1; Example 3, days 4, 5 and 6 PI", "value": "significantly better results than the other topical therapies"}, {"measurement": "efficacy vs TFT, Placebo and Compound 23", "setting": "RE strain HSV-1; Example 3, eyes with stromal disease <0.75 on day 3 PI", "value": "statistically better than TFT, Placebo and Compound 23"}, {"measurement": "efficacy ranking, average stromal disease scores", "setting": "RE strain HSV-1; Example 4, FIG. 2", "value": "Compound 96>Compound 82>Compound 23>TFT=Placebo"}, {"measurement": "difference between Compound 96 single-agent and Compound 96 plus TFT", "setting": "RE strain HSV-1; Example 5, FIG. 7, <0.5 on day 3 PI", "value": "No difference"}, {"measurement": "effect on development and progression of stromal disease", "setting": "RE strain HSV-1; Example 5, FIG. 7, score <0.5 on day 3 PI, 4 times per day", "value": "highly effective and slowed the progression and development stromal disease"}, {"measurement": "solubility of stock solution at 1 mg/ml", "setting": "[4]", "value": "moderately insoluble"}]}
